For 18 molecules, IC50 results are on record in patent publication US10906888B2, “Pyrimidine carboxamides as inhibitors of Vanin-1 enzyme” (Pfizer Inc., priority 2016, dated 2021).

The target in test [1] is human vanin-1 (Homo sapiens (Human), UniProt O95497). As to the kind of experiment: Human Vanin-1 Enzyme Assay 1. To be noted: 25 pM human vanin-1, 50 uM pantetheine 7-amino-4-trifluoromethylcoumarin substrate. In kind it is biochemical.
Test [2] addresses human vanin-1 present in human plasma (Homo sapiens (Human), UniProt O95497). Briefly: Vanin-1 in Human Plasma Assay. In kind it is biochemical. As to conditions: 50% pooled human plasma, 50 uM substrate. How it is done:
Vanin-1 in Human Plasma Assay.
The in vitro assay measures enzymatic cleavage of the fluorescently-labeled vanin substrate, pantetheine 7-amino-4-trifluoromethylcoumarin, by human vanin-1 present in human plasma.
Human plasma was prepared from whole blood drawn from healthy donors, collected in tubes containing sodium heparin. The plasma fractions were separated from the whole blood by centrifugation for 10 minutes at 2000×g and pooled.
The test inhibitors were solubilized in DMSO to a stock concentration of 30 mM. On the day of the assay, dose response plates were prepared by diluting the inhibitors in DMSO to a compound concentration 200-fold the final in-assay concentration. Concentration series were prepared by serially diluting in 100% DMSO in a three-fold series. […] From this intermediate compound plate, 10 μL were transferred to the assay plate and mixed with 20 uL of the pooled human plasma. The inhibitor and enzyme were co-incubated at room temperature for 30 minutes. The enzyme reaction was initiated by the addition of 10 μL of 200 uM pantetheine 7-amino-4-trifluoromethylcoumarin prepared in assay buffer. The final concentrations in the assay were 50% plasma, and 50 uM substrate. The final concentration of DMSO was 0.5%. Datapoints were measured over time using a Tecan Safire 2 platereader at 405 nm excitation wavelength and a 510 nm emission wavelength for detection.

Sequence of human vanin-1 (O95497 22-491): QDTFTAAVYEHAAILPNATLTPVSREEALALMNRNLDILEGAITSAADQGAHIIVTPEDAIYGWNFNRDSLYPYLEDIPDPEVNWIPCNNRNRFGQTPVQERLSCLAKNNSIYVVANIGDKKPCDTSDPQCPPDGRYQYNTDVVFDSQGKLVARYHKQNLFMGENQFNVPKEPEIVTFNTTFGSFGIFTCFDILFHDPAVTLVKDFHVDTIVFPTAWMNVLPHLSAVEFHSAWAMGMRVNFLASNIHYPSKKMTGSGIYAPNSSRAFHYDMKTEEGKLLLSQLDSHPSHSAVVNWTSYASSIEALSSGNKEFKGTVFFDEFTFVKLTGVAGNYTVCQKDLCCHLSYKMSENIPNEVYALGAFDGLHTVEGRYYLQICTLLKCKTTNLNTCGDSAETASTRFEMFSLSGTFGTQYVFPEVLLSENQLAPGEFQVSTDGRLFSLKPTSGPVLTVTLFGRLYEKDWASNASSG
Sequence of human vanin-1 present in human plasma (O95497 22-491): as above

Turning to `C[C@H](Nc1ncc(C(=O)N2CC3(CCOCC3)C2)cn1)c1cnccn1` [Example 147], the IC50 in test [1] stood at 0.65 nM; in test [2] it was 1.89 nM.
For `C[C@H](Nc1ncc(C(=O)N2CCC3(CCOCC3)C2)cn1)c1cncnc1` [Example 149], in that order: 0.677 nM and 1.3 nM.
With `C[C@@H](Nc1ncc(C(=O)N2CCC3(CCOCC3)C2)cn1)c1cncnc1` [Example 150], the figures for the IC50 in test [1] and in test [2] were 27.8 nM and 35.6 nM, respectively.
As to `C[C@H](Nc1ncc(C(=O)N2CCC3(CCOCC3)C2)cn1)c1ccncn1` [Example 155], the IC50 in test [1] was 4.39 nM; in test [2], 27.5 nM.
Take `O=C(c1cnc(NC2(c3cnccn3)CC2)nc1)N1CCC2(CCOCC2)C1` [Example 157]: the figures for the IC50 in test [1] and in test [2] were 0.875 nM and 12.9 nM, respectively.
For `O=C(c1cnc(NC2(c3cnccn3)CC2)nc1)N1CC2(CCOCC2)C1` [Example 158], in that order: 1.11 nM and 2.03 nM.
As for `Cc1ccc(C(C)Nc2ncc(C(=O)N3CCC4(CCOCC4)C3)cn2)cn1` (stereo not drawn) [Example 162], the IC50 stood at 0.629 nM in test [1] and 2.97 nM in test [2].
For `O=C(c1cnc(NCc2cncnc2C(F)(F)F)nc1)N1CCC2(CCOCC2)C1` [Example 166], in that order: 32.6 nM and 39.1 nM.
In the case of `Cc1ncc(CNc2ncc(C(=O)N3CCC4(CCOCC4)C3)cn2)cn1` [Example 170], the IC50 stood at 6.33 nM in test [1] and 16.5 nM in test [2].
With `Cc1ccc(CNc2ncc(C(=O)N3CC4(CCOCC4)C3)cn2)cn1` [Example 172], the IC50 in test [1] amounted to 4.53 nM; in test [2], 17.4 nM.
For `O=C(c1cnc(NC2(c3cncnc3)CCC2)nc1)N1CCC2(CCOCC2)C1` [Example 173], in that order: 0.116 nM and 1.61 nM.
For `O=C(c1cnc(NC2(c3cncnc3)CCC2)nc1)N1CC2(CCOCC2)C1` [Example 174], in that order: 0.293 nM and 0.905 nM.
On to `O=C(c1cnc(NC2(c3ncccn3)CC2)nc1)N1CC2(CCOCC2)C1` [Example 179], for which the IC50 in test [1] worked out at 7.33 nM; in test [2], 14.4 nM.
In the case of `CC(C)(Nc1ncc(C(=O)N2CCC3(CCOCC3)C2)cn1)c1cnccn1` [Example 182, 8-oxa-2-azaspiro[4.5]dec-2-yl(2-{[2-(pyrazin-2-yl)propan-2-yl]amino}pyrimidin-5-yl)methanone], the IC50 worked out at 0.062 nM in test [1] and 1.08 nM in test [2].
For `CC(Nc1ncc(C(=O)N2CC3(CCOCC3)C2)cn1)c1cncnc1` (stereo not drawn) [Example 184], in that order: 1.45 nM and 2.21 nM.
For `O=C(c1cnc(NCc2cncnc2)nc1)N1CC2(CCOCC2)C1` [Example 186], in that order: 5.48 nM and 4.63 nM.
For `O=C(c1cnc(NC2(c3cncnc3)CC2)nc1)N1CCC2(CCOCC2)C1` [Example 188, 8-oxa-2-azaspiro[4.5]dec-2-yl(2-{[1-(pyrimidin-5-yl)cyclopropyl]amino}pyrimidin-5-yl)methanone], the IC50 in test [1] was 0.277 nM; in test [2], 1.17 nM.
With `O=C(c1cnc(NC2(c3cncnc3)CC2)nc1)N1CCCCC1` [Example 190], the figures for the IC50 in test [1] and in test [2] were 12.5 nM and 12.4 nM, respectively.
